Measured values taken from US10259810B2, “N-sulfonylated pyrazolo[3,4-b]pyridin-6-carboxamides and method of use” (AbbVie S.à.r.l., priority 2015, dated 2019).

Key:
ΔF508-CFTR [1] = target: T1, ΔF508-CFTR (Homo sapiens, UniProt P13569, DEL508-508); test: CFTR cell surface levels using HRP-tagged ΔF508-CFTR expressing CFBE cells, in the presence of a co-corrector; type: cell-based; details: HRP-tagged ΔF508-CFTR CFBE cells, in the presence of 3 μM co-corrector; for EC50: read-out: EC50
T1 construct: host or cells: CFBE41o-, doxycycline-inducible
T1 sequence (P13569 with tags, fused parts or gaps DEL508-508): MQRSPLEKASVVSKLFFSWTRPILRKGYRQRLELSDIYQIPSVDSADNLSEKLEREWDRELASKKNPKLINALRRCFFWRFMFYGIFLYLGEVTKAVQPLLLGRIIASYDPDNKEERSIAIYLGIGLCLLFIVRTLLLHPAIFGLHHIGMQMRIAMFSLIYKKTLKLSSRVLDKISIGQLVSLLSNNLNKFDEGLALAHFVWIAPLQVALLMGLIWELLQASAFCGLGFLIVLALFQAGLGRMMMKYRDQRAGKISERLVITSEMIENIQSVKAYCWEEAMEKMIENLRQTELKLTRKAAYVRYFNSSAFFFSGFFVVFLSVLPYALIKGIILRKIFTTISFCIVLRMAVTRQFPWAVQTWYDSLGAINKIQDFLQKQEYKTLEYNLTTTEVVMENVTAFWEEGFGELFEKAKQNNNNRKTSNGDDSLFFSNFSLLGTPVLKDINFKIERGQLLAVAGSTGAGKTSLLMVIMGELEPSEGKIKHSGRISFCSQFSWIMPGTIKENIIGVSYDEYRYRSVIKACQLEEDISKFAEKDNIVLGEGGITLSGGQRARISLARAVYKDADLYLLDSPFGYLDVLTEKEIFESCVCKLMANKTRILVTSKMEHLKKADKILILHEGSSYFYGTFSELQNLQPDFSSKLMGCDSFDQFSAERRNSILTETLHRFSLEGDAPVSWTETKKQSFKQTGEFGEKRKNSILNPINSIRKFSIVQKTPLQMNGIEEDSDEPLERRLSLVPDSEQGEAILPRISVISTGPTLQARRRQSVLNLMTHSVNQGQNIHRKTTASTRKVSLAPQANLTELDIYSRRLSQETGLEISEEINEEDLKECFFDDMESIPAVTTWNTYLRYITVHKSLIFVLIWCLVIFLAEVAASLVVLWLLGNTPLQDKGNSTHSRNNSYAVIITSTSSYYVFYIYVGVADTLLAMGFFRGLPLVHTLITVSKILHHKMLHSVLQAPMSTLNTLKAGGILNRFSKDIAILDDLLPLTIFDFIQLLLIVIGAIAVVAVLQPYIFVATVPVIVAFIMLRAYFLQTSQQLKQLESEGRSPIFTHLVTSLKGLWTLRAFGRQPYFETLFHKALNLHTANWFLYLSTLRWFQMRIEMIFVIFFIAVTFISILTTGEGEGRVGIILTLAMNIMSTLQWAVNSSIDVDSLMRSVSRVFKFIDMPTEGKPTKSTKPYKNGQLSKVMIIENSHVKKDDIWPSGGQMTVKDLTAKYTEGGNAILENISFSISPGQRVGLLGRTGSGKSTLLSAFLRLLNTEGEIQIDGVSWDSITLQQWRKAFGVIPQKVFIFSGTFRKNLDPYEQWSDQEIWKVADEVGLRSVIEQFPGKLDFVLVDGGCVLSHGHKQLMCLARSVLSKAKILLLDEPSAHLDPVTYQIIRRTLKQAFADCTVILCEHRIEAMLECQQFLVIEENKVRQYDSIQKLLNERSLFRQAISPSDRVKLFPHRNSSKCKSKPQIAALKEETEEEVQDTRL
Summary of the method: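 Chemiluminescent read-out of surface HRP (15 min, dark) after PBS washes. Activity is normalized as 100×(sample−DMSO)/(3 μM co-corrector alone−DMSO).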

ΔF508-CFTR [2] = target: T1, ΔF508-CFTR; test: CFTR cell surface levels using HRP-tagged ΔF508-CFTR expressing CFBE cells, intrinsic corrector capacity; type: cell-based; design: % Activation: concentration or dose not given beside the values; details: HRP-tagged ΔF508-CFTR expressing CFBE41o- cells, compound alone (intrinsic corrector capacity), 20 hours at 33° C.; for EC50: read-out: EC50
Summary of the method: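 Surface ΔF508-CFTR was measured as HRP chemiluminescence from an extracellular-loop-4 tag, expressed as percent activity between DMSO and a […] corrector control.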

Structure (SMILES) | % Activation (ΔF508-CFTR [1]) | EC50 (ΔF508-CFTR [1]) | % Activation (ΔF508-CFTR [2]) | EC50 (ΔF508-CFTR [2])
CS(=O)(=O)NC(=O)c1cc(N2CCC(N3CCCC(C(F)(F)F)C3)CC2)c2c(C3CCC3)nn(-c3ccc(F)cc3)c2n1 (stereo not drawn) [Compound 586, 3-cyclobutyl-1-(4-fluorophenyl)-N-(methanesulfonyl)-4-[3-(trifluoromethyl)[1,4'-bipiperidin]-1'-yl]-1H-pyrazolo[3,4-b]pyridine-6-carboxamide] | 618.65% | 0.0371 µM | 331.67% | 0.0524 µM
COC1CCCN(C2CCN(c3cc(C(=O)NS(C)(=O)=O)nc4c3c(C3CCC3)nn4-c3ccc(F)cc3)CC2)C1 (stereo not drawn) [Compound 587, 3-cyclobutyl-1-(4-fluorophenyl)-N-(methanesulfonyl)-4-(3-methoxy[1,4'-bipiperidin]-1'-yl)-1H-pyrazolo[3,4-b]pyridine-6-carboxamide] | 504.6% | 0.398 µM | 277.1% | 0.235 µM
CC1(C)CN(C2CCN(c3cc(C(=O)NS(C)(=O)=O)nc4c3c(C3CCC3)nn4-c3ccc(F)cc3)CC2)CCO1 [Compound 588, 3-cyclobutyl-4-[4-(2,2-dimethylmorpholin-4-yl)piperidin-1-yl]-1-(4-fluorophenyl)-N-(methanesulfonyl)-1H-pyrazolo[3,4-b]pyridine-6-carboxamide] | 571.2% | 0.029 µM | 366.8% | 0.126 µM
COCCN(C)C1CCN(c2cc(C(=O)NS(=O)(=O)N(C)C)nc3c2c(C2CCC2)nn3-c2ccc(F)cc2)CC1 [Compound 591, 3-cyclobutyl-N-(dimethylsulfamoyl)-1-(4-fluorophenyl)-4-{4-[(2-methoxyethyl)(methyl)amino]piperidin-1-yl}-1H-pyrazolo[3,4-b]pyridine-6-carboxamide] | 384% | 1.59 µM | 189.1% | 0.795 µM
CONS(=O)(=O)NC(=O)c1cc(N2CCC(N3CCOCC3)CC2)c2c(C3CCC3)nn(-c3ccc(F)cc3)c2n1 [Compound 592, 3-cyclobutyl-1-(4-fluorophenyl)-N-(methoxysulfamoyl)-4-[4-(morpholin-4-yl)piperidin-1-yl]-1H-pyrazolo[3,4-b]pyridine-6-carboxamide] | 518.55% | 0.0568 µM | 300.8% | 0.183 µM
CS(=O)(=O)NC(=O)c1cc(C2CCN(C3CCC(F)(F)CC3)CC2)c2c(C3CCC3)nn(-c3ccc(F)cc3)c2n1 [Compound 593, 3-cyclobutyl-4-[1-(4,4-difluorocyclohexyl)piperidin-4-yl]-1-(4-fluorophenyl)-N-(methanesulfonyl)-1H-pyrazolo[3,4-b]pyridine-6-carboxamide] | 366.7% | 0.194 µM | 157.8% | 0.19 µM
CN(C)S(=O)(=O)NC(=O)c1cc(CN2CCC(N3CCOCC3)CC2)c2c(C3CCC3)nn(-c3ccc(F)cc3)c2n1 [Compound 595, 3-cyclobutyl-N-(dimethylsulfamoyl)-1-(4-fluorophenyl)-4-{[4-(morpholin-4-yl)piperidin-1-yl]methyl}-1H-pyrazolo[3,4-b]pyridine-6-carboxamide] | 231.9% | 1.43 µM | 58.87% | 1.52 µM
CS(=O)(=O)NC(=O)c1cc(CN2CCC(N3CCOCC3)CC2)c2c(C3CCC3)nn(-c3ccc(F)cc3)c2n1 [Compound 596, 3-cyclobutyl-1-(4-fluorophenyl)-N-(methanesulfonyl)-4-{[4-(morpholin-4-yl)piperidin-1-yl]methyl}-1H-pyrazolo[3,4-b]pyridine-6-carboxamide] | 304.8% | 1.91 µM | 104.3% | 1.38 µM
CC(C)N1CCC(c2cc(C(=O)NS(=O)(=O)N(C)C)nc3c2c(C2CCC2)nn3-c2ccc(F)cc2)CC1 [Compound 598, 3-cyclobutyl-N-(dimethylsulfamoyl)-1-(4-fluorophenyl)-4-[1-(propan-2-yl)piperidin-4-yl]-1H-pyrazolo[3,4-b]pyridine-6-carboxamide] | 153.9% | ≥ 10 µM | 28.03% | 
CS(=O)(=O)NC(=O)c1cc(C2CCN(CC3CCOCC3)CC2)c2c(C3CCC3)nn(-c3ccc(F)cc3)c2n1 [Compound 600, 3-cyclobutyl-1-(4-fluorophenyl)-N-(methanesulfonyl)-4-{1-[(oxan-4-yl)methyl]piperidin-4-yl}-1H-pyrazolo[3,4-b]pyridine-6-carboxamide] | 326.1% | 1.62 µM | 126.5% | 1.21 µM
CN(C)S(=O)(=O)NC(=O)c1cc(C2CCN(CC3CCOCC3)CC2)c2c(C3CCC3)nn(-c3ccc(F)cc3)c2n1 [Compound 601, 3-cyclobutyl-N-(dimethylsulfamoyl)-1-(4-fluorophenyl)-4-{1-[(oxan-4-yl)methyl]piperidin-4-yl}-1H-pyrazolo[3,4-b]pyridine-6-carboxamide] | 273.9% | 0.625 µM | 112% | 2.18 µM
COC1CC(CN2CCC(c3cc(C(=O)NS(C)(=O)=O)nc4c3c(C3CCC3)nn4-c3ccc(F)cc3)CC2)C(OC)O1 (stereo not drawn) [Compound 602, 3-cyclobutyl-4-{1-[(2,5-dimethoxyoxolan-3-yl)methyl]piperidin-4-yl}-1-(4-fluorophenyl)-N-(methanesulfonyl)-1H-pyrazolo[3,4-b]pyridine-6-carboxamide] | 359.1% | 0.581 µM | 133.6% | 1.18 µM
CS(=O)(=O)NC(=O)c1cc(C2CCN(CCC(F)(F)F)CC2)c2c(C3CCC3)nn(-c3ccc(F)cc3)c2n1 [Compound 603, 3-cyclobutyl-1-(4-fluorophenyl)-N-(methanesulfonyl)-4-[1-(3,3,3-trifluoropropyl)piperidin-4-yl]-1H-pyrazolo[3,4-b]pyridine-6-carboxamide] | 344.65% | 0.156 µM | 136.2% | 0.283 µM
CN(C)S(=O)(=O)NC(=O)c1cc(C2CCN(CCC(F)(F)F)CC2)c2c(C3CCC3)nn(-c3ccc(F)cc3)c2n1 [Compound 604, 3-cyclobutyl-N-(dimethylsulfamoyl)-1-(4-fluorophenyl)-4-[1-(3,3,3-trifluoropropyl)piperidin-4-yl]-1H-pyrazolo[3,4-b]pyridine-6-carboxamide] | 268.3% | 0.3 µM | 86.51% | 0.49 µM
COS(=O)(=O)NC(=O)c1cc(N2CCC(N3CCOCC3)CC2)c2c(C3CCC3)nn(-c3ccc(F)cc3)c2n1 [Compound 606, methyl {3-cyclobutyl-1-(4-fluorophenyl)-4-[4-(morpholin-4-yl)piperidin-1-yl]-1H-pyrazolo[3,4-b]pyridine-6-carbonyl}sulfamate] | 513.7% | 0.469 µM | 283.8% | 0.973 µM
COCCN1CCN(C2CCN(c3cc(C(=O)NS(=O)(=O)N(C)C)nc4c3c(C3CCC3)nn4-c3ccc(F)cc3)CC2)CC1 [Compound 607, 3-cyclobutyl-N-(dimethylsulfamoyl)-1-(4-fluorophenyl)-4-{4-[4-(2-methoxyethyl)piperazin-1-yl]piperidin-1-yl}-1H-pyrazolo[3,4-b]pyridine-6-carboxamide] | 484.3% | 0.667 µM | 272.6% | 0.342 µM
COCCN1CCN(S(=O)(=O)NC(=O)c2cc(N3CCC(COC)CC3)c3c(C4CCC4)nn(-c4ccc(F)cc4)c3n2)CC1 [Compound 610, 3-cyclobutyl-1-(4-fluorophenyl)-N-[4-(2-methoxyethyl)piperazine-1-sulfonyl]-4-[4-(methoxymethyl)piperidin-1-yl]-1H-pyrazolo[3,4-b]pyridine-6-carboxamide] | 375.5% | 0.119 µM | 182.13% | 0.186 µM
CN(C)S(=O)(=O)NC(=O)c1cc(C2CCN(C3CCOCC3)CC2)c2c(C3CCC3)nn(-c3ccc(F)cc3)c2n1 [Compound 612, 3-cyclobutyl-N-(dimethylsulfamoyl)-1-(4-fluorophenyl)-4-[1-(oxan-4-yl)piperidin-4-yl]-1H-pyrazolo[3,4-b]pyridine-6-carboxamide] | 320.8% | 3.33 µM | 108.7% | 0.876 µM
CN(C)S(=O)(=O)NC(=O)c1cc(C2CCN(CC3CC3)CC2)c2c(C3CCC3)nn(-c3ccc(F)cc3)c2n1 [Compound 613, 3-cyclobutyl-4-[1-(cyclopropylmethyl)piperidin-4-yl]-N-(dimethylsulfamoyl)-1-(4-fluorophenyl)-1H-pyrazolo[3,4-b]pyridine-6-carboxamide] | 152.9% | ≥ 10 µM | 30.09% | 
CN(C)S(=O)(=O)NC(=O)c1cc(N2CCC(N3CCN(C4COC4)CC3)CC2)c2c(C3CCC3)nn(-c3ccc(F)cc3)c2n1 [Compound 615, 3-cyclobutyl-N-(dimethylsulfamoyl)-1-(4-fluorophenyl)-4-{4-[4-(oxetan-3-yl)piperazin-1-yl]piperidin-1-yl}-1H-pyrazolo[3,4-b]pyridine-6-carboxamide] | 450.85% | 0.13 µM | 255.3% | 0.482 µM
